Read-outs that look alike come from different tables or passages of the source.
Columns and labels:
[1] = system: A375P cell line (melanoma); test: Proliferation inhibition activity against A375P cell line (MTT assay); type: cell-based; details: A375P melanoma cells; for GI50: MTT assay
Procedure: Measurement of Proliferation Inhibition Activity Against A375P Cell Line (Melanoma)
An A375P cell line purchased from ATCC was cultured in a DMEM medium [containing 10% FBS, 1% penicillin/streptomycin] at 37° C. in the presence of 5% CO2. The cultured A375P cell line was taken using 0.05% trypsin-0.02% EDTA, and seeded into a 96-well plate at a density of 5×10^3 cells per well.
Cell viability was measured using an MTT [3-(4,5-dimethylthiazol-2-yl)-2,5-diphenyltetrazolium bromide] assay (CellTiter 96 Assay, Promega) as follows. 15 μl of dye was placed per well, the cells were cultured for 2 hours, and then treated with 100 μl of a stop solution, and after 24 hours, absorbance was measured. One day after plating, they were treated with compounds. For treatment with compounds, […] of stock was prepared, and serially diluted to one-third in dimethyl sulfoxide (DMSO) to prepare a 12-point test compound plate, and 0.5 μl was added (final concentration DMSO 0.5%).
In the following Tables 1 to 3, in a case of GI50 being 10 to 30 μM, it was indicated as (+), in a case of it being 1 to 10 μM, it was indicated as (++), and in case of being less than 1 μM, it was indicated as (+++).

AKT1 = AKT1 (Homo sapiens, UniProt P31749); test: Kinase panel screening; type: biochemical; details: AKT1, 10 μM
Procedure: (§1) Using the compound of Example 43 (1-(4-((4-ethylpiperazine-1-yl)methyl)-3-(trifluoromethyl)phenyl)-3-(4-(2-oxo-2,3-dihydro-1H-thieno[3,4-b][1,4]diazepine-4-yl)phenyl)urea), kinase panel screening was conducted against 35 kinds of kinases at a concentration of 10 μM, and the results are shown in the following Tables 4 and 5 (percentages of enzymatic inhibitions exerted by compound 43 (10 μM) on 30 selected protein kinases).
(§2) Further, the IC50 values (50% inhibition concentration) of the compound of Example 43 against various kinases were calculated using GraphPad Prism 4.0 software, and the results are shown in the following Table 6.

ALK = ALK (Homo sapiens, UniProt Q9UM73); test: Kinase panel screening; type: biochemical
Procedure: as §1, §2

Aurora A = Aurora A (Homo sapiens, UniProt O14965); test: Kinase panel screening; type: biochemical
Procedure: as §1, §2

BRAF = BRAF (Homo sapiens, UniProt P15056); test: Kinase panel screening; type: biochemical
Procedure: as §1, §2

BRAF (V599E) = BRAF (V599E) (Homo sapiens, UniProt P15056, V600E); test: Kinase panel screening; type: biochemical
Procedure: as §1, §2

CDK1/cyclin B = CDK1/cyclin B (Homo sapiens, UniProt P06493); test: Kinase panel screening; type: biochemical
Procedure: as §1, §2

CDK2/cyclin E = CDK2/cyclin E (Homo sapiens, UniProt P24941); test: Kinase panel screening; type: biochemical
Procedure: as §1, §2

EGFR = EGFR (Homo sapiens, UniProt P00533); test: Kinase panel screening; type: biochemical
Procedure: as §1, §2

ERK1 = ERK1 (Homo sapiens, UniProt P27361); test: Kinase panel screening; type: biochemical; details: ERK1, 10 μM
Procedure: as §1, §2

FAK/PTK2 = FAK/PTK2 (Homo sapiens, UniProt Q05397); test: Kinase panel screening; type: biochemical; details: FAK/PTK2, 10 μM
Procedure: as §1, §2

FGFR1 = FGFR1 (Homo sapiens, UniProt P11362); test: Kinase panel screening; type: biochemical; details: FGFR1, 10 μM
Procedure: as §1, §2

FGFR2 = FGFR2 (Homo sapiens, UniProt P21802); test: Kinase panel screening; type: biochemical; details: FGFR2, 10 μM
Procedure: as §1, §2

FGFR3 = FGFR3 (Homo sapiens, UniProt P22607); test: Kinase panel screening; type: biochemical; details: FGFR3, 10 μM
Procedure: as §1, §2

FLT1/VEGFR1 = FLT1/VEGFR1 (Homo sapiens, UniProt P17948); test: Kinase panel screening; type: biochemical; details: FLT1/VEGFR1, 10 μM
Procedure: as §1, §2

FLT3 = FLT3 (Homo sapiens, UniProt P36888); test: Kinase panel screening; type: biochemical; details: FLT3, 10 μM
Procedure: as §1, §2

FLT4/VEGFR3 = FLT4/VEGFR3 (Homo sapiens, UniProt P35916); test: Kinase panel screening; type: biochemical; details: FLT4/VEGFR3, 10 μM
Procedure: as §1, §2

FMS = FMS (Homo sapiens, UniProt P07333); test: Kinase panel screening; type: biochemical
Procedure: as §1, §2

GSK3b = GSK3b (Homo sapiens, UniProt P49841); test: Kinase panel screening; type: biochemical
Procedure: as §1, §2

IGF1R = IGF1R (Homo sapiens, UniProt P08069); test: Kinase panel screening; type: biochemical
Procedure: as §1, §2

ITK = ITK (Homo sapiens, UniProt Q08881); test: Kinase panel screening; type: biochemical
Procedure: as §1, §2

KDR/VEGFR2 = KDR/VEGFR2 (Homo sapiens, UniProt P35968); test: Kinase panel screening; type: biochemical; details: KDR/VEGFR2, 10 μM
Procedure: as §1, §2

LCK = LCK (Homo sapiens, UniProt P06239); test: Kinase panel screening; type: biochemical
Procedure: as §1, §2

LYN = LYN (Homo sapiens, UniProt P07948); test: Kinase panel screening; type: biochemical
Procedure: as §1, §2

MEK1 = MEK1 (Homo sapiens, UniProt Q02750); test: Kinase panel screening; type: biochemical; details: MEK1, 10 μM
Procedure: as §1, §2

P38a/MAPK14 = P38a/MAPK14 (Homo sapiens, UniProt Q16539); test: Kinase panel screening; type: biochemical; details: P38a/MAPK14, 10 μM
Procedure: as §1, §2

PDGFRa = PDGFRa (Homo sapiens, UniProt P16234); test: Kinase panel screening; type: biochemical
Procedure: as §1, §2

PDGFRb = PDGFRb (Homo sapiens, UniProt P09619); test: Kinase panel screening; type: biochemical
Procedure: as §1, §2

RAF1 = RAF1 (Homo sapiens, UniProt P04049); test: Kinase panel screening; type: biochemical; details: RAF1, 10 μM
Procedure: as §1, §2

RET = RET (Homo sapiens, UniProt P07949); test: Kinase panel screening; type: biochemical
Procedure: as §1, §2

ROS/ROS1 = ROS/ROS1 (Homo sapiens, UniProt P08922); test: Kinase panel screening; type: biochemical; details: ROS/ROS1, 10 μM
Procedure: as §1, §2

SYK = SYK (Homo sapiens, UniProt P43405); test: Kinase panel screening; type: biochemical
Procedure: as §1, §2

TIE2/TEK = TIE2/TEK (Homo sapiens, UniProt Q02763); test: Kinase panel screening; type: biochemical
Procedure: as §1, §2

c-Kit = c-Kit (Homo sapiens, UniProt P10721); test: Kinase panel screening; type: biochemical
Procedure: as §1, §2

c-MET = c-MET (Homo sapiens, UniProt P08581); test: Kinase panel screening; type: biochemical
Procedure: as §1, §2

c-Src = c-Src (Homo sapiens, UniProt P12931); test: Kinase panel screening; type: biochemical
Procedure: as §1, §2

Chain of LCK (P06239 whole entry): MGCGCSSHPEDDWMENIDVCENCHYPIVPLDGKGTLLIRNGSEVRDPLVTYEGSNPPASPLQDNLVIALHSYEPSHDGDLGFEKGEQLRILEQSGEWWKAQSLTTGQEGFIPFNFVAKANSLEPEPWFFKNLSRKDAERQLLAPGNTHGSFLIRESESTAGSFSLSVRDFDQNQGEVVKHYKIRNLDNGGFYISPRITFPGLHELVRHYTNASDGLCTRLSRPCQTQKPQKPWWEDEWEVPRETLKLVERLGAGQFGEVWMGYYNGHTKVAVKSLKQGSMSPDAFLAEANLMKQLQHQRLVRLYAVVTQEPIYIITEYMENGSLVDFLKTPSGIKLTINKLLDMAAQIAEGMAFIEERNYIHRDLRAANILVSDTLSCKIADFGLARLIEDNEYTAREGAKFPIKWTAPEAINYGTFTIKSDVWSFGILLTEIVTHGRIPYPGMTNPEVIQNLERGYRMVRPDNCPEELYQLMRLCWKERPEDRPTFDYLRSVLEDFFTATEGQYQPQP
Chain of FMS (P07333 20-972): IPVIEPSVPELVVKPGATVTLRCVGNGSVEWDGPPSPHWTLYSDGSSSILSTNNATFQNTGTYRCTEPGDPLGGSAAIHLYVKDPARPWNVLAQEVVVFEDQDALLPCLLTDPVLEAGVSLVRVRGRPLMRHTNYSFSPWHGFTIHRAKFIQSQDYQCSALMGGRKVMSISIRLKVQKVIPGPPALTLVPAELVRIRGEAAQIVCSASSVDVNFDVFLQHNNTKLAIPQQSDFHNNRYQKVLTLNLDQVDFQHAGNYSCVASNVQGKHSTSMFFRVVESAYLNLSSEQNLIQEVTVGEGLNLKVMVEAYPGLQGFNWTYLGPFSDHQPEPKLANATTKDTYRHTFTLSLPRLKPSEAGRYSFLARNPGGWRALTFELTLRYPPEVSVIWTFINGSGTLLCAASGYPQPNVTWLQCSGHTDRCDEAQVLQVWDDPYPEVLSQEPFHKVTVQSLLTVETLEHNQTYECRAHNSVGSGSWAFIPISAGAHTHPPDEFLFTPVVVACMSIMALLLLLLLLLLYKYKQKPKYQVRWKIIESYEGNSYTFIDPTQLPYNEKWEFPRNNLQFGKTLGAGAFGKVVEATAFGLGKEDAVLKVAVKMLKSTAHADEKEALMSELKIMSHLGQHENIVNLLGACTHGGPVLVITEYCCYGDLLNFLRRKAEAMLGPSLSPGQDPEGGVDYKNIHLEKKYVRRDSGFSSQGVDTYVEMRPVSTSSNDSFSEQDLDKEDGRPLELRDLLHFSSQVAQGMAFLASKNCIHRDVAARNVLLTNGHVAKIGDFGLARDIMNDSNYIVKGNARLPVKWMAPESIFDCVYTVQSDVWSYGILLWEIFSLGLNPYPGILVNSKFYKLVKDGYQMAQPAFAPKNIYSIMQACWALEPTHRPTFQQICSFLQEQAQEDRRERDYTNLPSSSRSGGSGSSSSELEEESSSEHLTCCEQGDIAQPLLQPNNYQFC
Chain of FLT4/VEGFR3 (P35916 25-1363): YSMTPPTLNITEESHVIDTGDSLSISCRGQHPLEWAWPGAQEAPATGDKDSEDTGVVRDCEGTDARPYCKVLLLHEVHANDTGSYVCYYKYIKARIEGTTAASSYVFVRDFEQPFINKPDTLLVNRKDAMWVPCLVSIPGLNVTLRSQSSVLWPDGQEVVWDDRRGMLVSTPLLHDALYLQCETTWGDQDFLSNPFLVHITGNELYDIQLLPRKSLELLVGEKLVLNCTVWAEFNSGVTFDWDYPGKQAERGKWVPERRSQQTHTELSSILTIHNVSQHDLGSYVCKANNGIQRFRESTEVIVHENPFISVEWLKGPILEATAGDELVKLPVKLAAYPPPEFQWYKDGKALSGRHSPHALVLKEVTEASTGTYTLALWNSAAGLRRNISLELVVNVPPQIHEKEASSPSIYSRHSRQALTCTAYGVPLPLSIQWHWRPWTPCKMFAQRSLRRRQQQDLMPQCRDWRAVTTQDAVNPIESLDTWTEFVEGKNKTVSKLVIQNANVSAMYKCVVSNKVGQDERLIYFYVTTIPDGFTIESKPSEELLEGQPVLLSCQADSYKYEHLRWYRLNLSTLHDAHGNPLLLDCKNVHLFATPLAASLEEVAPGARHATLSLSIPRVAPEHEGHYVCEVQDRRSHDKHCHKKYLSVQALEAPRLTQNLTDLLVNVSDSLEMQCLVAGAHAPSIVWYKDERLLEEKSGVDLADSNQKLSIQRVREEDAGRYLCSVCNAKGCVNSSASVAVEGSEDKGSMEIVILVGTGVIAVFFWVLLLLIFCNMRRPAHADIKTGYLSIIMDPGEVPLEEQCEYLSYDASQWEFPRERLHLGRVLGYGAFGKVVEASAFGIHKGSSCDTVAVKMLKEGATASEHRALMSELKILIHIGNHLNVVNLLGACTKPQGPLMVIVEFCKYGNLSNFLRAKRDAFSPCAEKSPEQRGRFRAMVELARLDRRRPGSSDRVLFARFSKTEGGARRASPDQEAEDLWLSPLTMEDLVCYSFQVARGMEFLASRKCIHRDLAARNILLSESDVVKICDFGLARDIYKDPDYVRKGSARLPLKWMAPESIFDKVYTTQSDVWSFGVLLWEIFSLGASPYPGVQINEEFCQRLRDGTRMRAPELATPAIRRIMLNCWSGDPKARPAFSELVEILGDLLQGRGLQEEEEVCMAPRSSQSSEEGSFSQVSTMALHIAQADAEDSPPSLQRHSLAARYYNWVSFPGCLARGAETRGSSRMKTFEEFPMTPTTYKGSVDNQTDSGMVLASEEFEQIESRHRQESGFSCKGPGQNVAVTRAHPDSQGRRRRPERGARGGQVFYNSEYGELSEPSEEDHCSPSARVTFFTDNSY
Chain of ITK (Q08881 whole entry, species assumed): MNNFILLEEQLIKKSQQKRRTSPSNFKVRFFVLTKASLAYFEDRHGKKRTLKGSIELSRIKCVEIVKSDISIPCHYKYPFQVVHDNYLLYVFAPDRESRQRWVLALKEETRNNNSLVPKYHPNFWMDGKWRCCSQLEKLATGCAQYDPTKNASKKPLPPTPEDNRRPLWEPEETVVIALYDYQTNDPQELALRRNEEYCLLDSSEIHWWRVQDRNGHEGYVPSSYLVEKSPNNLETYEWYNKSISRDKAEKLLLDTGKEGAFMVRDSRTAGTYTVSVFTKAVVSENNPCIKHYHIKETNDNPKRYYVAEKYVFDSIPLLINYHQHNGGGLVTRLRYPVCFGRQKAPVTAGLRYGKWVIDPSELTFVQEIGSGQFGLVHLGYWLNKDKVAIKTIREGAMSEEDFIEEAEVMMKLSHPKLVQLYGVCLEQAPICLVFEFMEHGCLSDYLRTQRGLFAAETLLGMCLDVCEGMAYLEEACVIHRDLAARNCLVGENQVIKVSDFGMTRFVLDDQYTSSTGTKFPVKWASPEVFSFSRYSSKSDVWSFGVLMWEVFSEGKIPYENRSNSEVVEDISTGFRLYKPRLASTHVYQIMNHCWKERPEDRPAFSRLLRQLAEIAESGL
Chain of FGFR3 (P22607 23-806): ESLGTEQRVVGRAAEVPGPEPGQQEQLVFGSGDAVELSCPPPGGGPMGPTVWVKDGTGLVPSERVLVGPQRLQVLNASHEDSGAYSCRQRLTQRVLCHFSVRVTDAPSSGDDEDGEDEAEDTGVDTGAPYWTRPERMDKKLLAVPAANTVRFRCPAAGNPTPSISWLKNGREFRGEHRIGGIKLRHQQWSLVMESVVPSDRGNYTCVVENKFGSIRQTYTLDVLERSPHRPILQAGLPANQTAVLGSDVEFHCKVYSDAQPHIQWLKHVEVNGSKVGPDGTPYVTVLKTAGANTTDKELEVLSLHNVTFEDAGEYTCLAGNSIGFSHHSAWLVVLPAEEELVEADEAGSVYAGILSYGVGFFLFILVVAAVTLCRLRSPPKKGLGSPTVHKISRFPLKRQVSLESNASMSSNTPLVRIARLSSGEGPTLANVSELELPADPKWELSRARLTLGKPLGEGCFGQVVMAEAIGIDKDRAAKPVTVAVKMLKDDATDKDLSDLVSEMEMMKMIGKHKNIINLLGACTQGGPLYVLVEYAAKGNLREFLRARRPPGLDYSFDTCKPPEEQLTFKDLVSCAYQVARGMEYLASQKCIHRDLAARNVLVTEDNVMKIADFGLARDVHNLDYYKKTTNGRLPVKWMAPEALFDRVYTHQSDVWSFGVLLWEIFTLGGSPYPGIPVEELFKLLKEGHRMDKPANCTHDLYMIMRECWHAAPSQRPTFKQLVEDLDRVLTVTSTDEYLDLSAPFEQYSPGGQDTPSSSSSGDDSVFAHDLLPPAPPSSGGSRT
Chain of RAF1 (P04049 whole entry): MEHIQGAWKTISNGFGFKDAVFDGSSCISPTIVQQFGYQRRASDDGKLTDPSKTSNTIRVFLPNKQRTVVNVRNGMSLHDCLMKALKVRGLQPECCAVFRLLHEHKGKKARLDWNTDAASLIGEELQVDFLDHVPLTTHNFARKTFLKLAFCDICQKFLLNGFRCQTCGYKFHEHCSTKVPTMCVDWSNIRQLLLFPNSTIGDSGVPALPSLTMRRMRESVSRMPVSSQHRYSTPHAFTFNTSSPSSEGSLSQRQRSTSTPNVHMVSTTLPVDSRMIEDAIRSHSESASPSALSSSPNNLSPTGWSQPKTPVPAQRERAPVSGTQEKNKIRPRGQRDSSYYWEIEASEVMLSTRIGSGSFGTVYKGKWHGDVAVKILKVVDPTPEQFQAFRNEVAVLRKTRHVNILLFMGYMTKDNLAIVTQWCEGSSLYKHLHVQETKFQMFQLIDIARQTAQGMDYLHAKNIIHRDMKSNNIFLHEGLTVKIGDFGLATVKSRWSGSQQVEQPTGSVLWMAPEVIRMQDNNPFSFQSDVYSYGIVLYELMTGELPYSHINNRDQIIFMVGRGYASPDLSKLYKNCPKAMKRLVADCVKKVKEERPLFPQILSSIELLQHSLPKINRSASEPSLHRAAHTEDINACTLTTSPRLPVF

## CCN1CCN(Cc2ccc(NC(=O)Nc3ccc(C4=Nc5cscc5NC(=O)C4)cc3)cc2C(F)(F)F)CC1 [Example 43, 1-(4-((4-ethylpiperazine-1-yl)methyl)-3-(trifluoromethyl)phenyl)-3-(4-(2-oxo-2,3-dihydro-1H-thieno[3,4-b][1,4]diazepine-4-yl)phenyl)urea]
[1]; read-out: A375P (GI50)
  GI50: < 1000 nM
[1]; read-out: GI50 value against A375P
  GI50: 1450 nM
[1]; statement in words
  effects against A375P: significant effects
AKT1
  inhibition at 10 µM: 3.23%
ALK
  inhibition at 10 µM: 41%
Aurora A
  inhibition at 10 µM: 20.4%
BRAF
  inhibition at 10 µM: 32%
BRAF (V599E)
  inhibition at 10 µM: 43.9%
CDK1/cyclin B
  inhibition at 10 µM: 2.68%
CDK2/cyclin E
  inhibition at 10 µM: 0.28%
EGFR
  inhibition at 10 µM: 24.8%
ERK1
  inhibition at 10 µM: 1.22%
FAK/PTK2
  inhibition at 10 µM: 41.2%
FGFR1
  inhibition at 10 µM: 34.4%
FGFR2
  inhibition at 10 µM: 29.9%
FGFR3
  inhibition at 10 µM: 45%
FLT1/VEGFR1
  inhibition at 10 µM: 79.1%
FLT3
  inhibition at 10 µM: 98.9%
FLT4/VEGFR3
  inhibition at 10 µM: 95.8%
FMS
  inhibition at 10 µM: 100%
GSK3b
  inhibition at 10 µM: 8.62%
IGF1R
  inhibition at 10 µM: 1.34%
ITK
  inhibition at 10 µM: 20.7%
KDR/VEGFR2
  inhibition at 10 µM: 60.2%
LCK
  inhibition at 10 µM: 79.3%
LYN
  inhibition at 10 µM: 89.4%
MEK1
  inhibition at 10 µM: 5.26%
P38a/MAPK14
  inhibition at 10 µM: 89.9%
PDGFRa
  inhibition at 10 µM: 85.9%
PDGFRb
  inhibition at 10 µM: 96.1%
RAF1
  inhibition at 10 µM: 86.2%
RET
  inhibition at 10 µM: 99.1%
ROS/ROS1
  inhibition at 10 µM: 3.71%
SYK
  inhibition at 10 µM: 57.4%
TIE2/TEK
  inhibition at 10 µM: 64.9%
c-Kit
  inhibition at 10 µM: 85.9%
c-MET
  inhibition at 10 µM: 21.7%
c-Src
  inhibition at 10 µM: 55.2%

Reference: patent publication US10174047B2, “Thienodiazepine derivatives or pharmaceutically acceptable salts thereof, and pharmaceutical composition including the same as an active ingredient” (Industry-University Cooperation Foundation Hanyang …, priority 2015, dated 2019)
